{"source": "patent EP0214933A2", "about": "“Mixture preparations for the treatment of malaria” (CIBA-GEIGY AG, priority 1985, dated 1987)", "key": {"[1]": {"tested_on": "Plasmodium falciparum T96 Zellinie A", "assay": "Growth inhibition of chloroquine-sensitive P. falciparum cultured in human erythrocytes", "assay_type": "cell-based", "settings": "for IC20 / IC50: Plasmodium falciparum, Erythrocyte; for IC50: over 2 cycles", "source_text": "(§1) • a) Durch konventionelles Züchten des Stammes Plasmodium falciparum T96 in einer 2 % (V/V) Suspension von humanen Erythrozyten wird der Grundorganismus-Zellinie A fortgepflanzt, welche eine normale Empfindlichkeit gegenüber Chloroquin aufweist. • b) Zellinie A des obigen Stammes wird unter analogen Standardbedingungen wie unter a) gezüchtet, jedoch mit Zusatz von immer ansteigenden Konzentrationen von Chloroquin, bis eine Chloroquinresistente Zellinie B resultiert, welche weiterhin in Kulturmedien mit einer 500 nM-Konzentration von Chloroquin andauernd normales Wachstum (dieselbe Wachstumsraten wie Zellinie A) aufweist.\n(§2) • I. Die Züchtung von Testorganismen erfolgt unter den für Züchtung von Plasmodien üblichen Bedingungen auf einer 2 % Suspension von humanen Erythrozyten, supplementiert mit 50 mg/1 Hypoxanthin und gegebenenfalls unter Zugabe der getesteten Hemmsubstanz in gewünschter Konzentration. Die initiale Parasitämie (- der prozentuelle Anteil der zu Beginn von Plasmodien infizierten Erythrozyten) beträgt 1-2 %. Das Resultat (Hemmwirkung) wird als IC50 ausgewertet, d.h. jene Konzentration des Wirkstoffes, die eine Senkung der finalen Parasitämie um 50 %, d.h. eine 50%ige Hemmung des Wachstums, verursacht. • II. In einer alternativen Versuchsanordnung wird beim Einhalten aller übrigen Bedingungen ohne Zugabe von Hypoxanthin und mit einer initialen Parasitämie von 0,5 % gearbeitet."}, "[2]": {"tested_on": "Plasmodium falciparum T96 Chloroquinresistente Zellinie B", "assay": "Growth inhibition of chloroquine-resistant P. falciparum cultured in human erythrocytes", "assay_type": "cell-based", "settings": "for IC50: Plasmodium falciparum, Erythrocyte, over 2 cycles", "source_text": "as §1, §2"}, "P. vinckei": {"tested_on": "P. vinckei", "settings": "cited from earlier work"}, "[3]": {"tested_on": "Plasmodium falciparum in Kultur an menschlichen Erythrozyten", "settings": "culture on human erythrocytes; cited from earlier work"}}, "note": "Like-named read-outs stand apart in the source and are kept apart here.", "data": [{"smiles": "CCN(CC)CCCC(C)Nc1ccnc2cc(Cl)ccc12", "note": "(stereo not drawn) [Chloroquin, 7-Chlor-4-(4-diethylamino-l-methylbutylamino)chinolin]", "values": [{"measurement": "IC20", "setting": "[1]", "value": 10, "unit": "nM"}, {"measurement": "IC50", "setting": "[1]; Versuchsanordnung I (50 mg/l hypoxanthine, initial parasitaemia 1-2 %)", "value": 50, "unit": "nM"}, {"measurement": "IC50", "setting": "[1]; Versuchsanordnung II (no hypoxanthine, initial parasitaemia 0,5 %)", "value": "10 to 15", "unit": "nM"}, {"measurement": "IC50", "setting": "[2]; Versuchsanordnung I", "value": "~800", "unit": "nM"}, {"measurement": "Vermehrungsfaktor", "setting": "[2]; Versuchsanordnung I, with 500 nM chloroquine in the medium, same as Zellinie A without chloroquine (within 48 hours)", "value": "7-9"}]}, {"smiles": "CC(=O)N(O)CCCCCNC(=O)CCC(=O)N(O)CCCCCNC(=O)CCC(=O)N(O)CCCCCN", "note": "[Desferrioxamin B (Mesylat)]", "values": [{"measurement": "IC20", "setting": "[1]; Versuchsanordnung I, Hauptversuch II, read-out: IC20", "value": 9000, "unit": "nM"}]}, {"smiles": "CC(=O)N(O)CCCCCNC(=O)CCC(=O)N(O)CCCCCNC(=O)CCC(=O)N(O)CCCCCN", "note": "[Desferrioxamin B, 6,17,28-Trihydroxy-7,10,18,21,29-pentaoxo-6,11,17,22,28-pentaaza-triacontanylamin]", "values": [{"measurement": "IC50", "setting": "[1]; Versuchsanordnung I, read-out: IC50", "value": "17000 ± 3000", "unit": "nM"}, {"measurement": "IC50", "setting": "[1]; Versuchsanordnung II, read-out: IC50", "value": "5000 ± 2000", "unit": "nM"}, {"measurement": "IC50", "setting": "[2]; Versuchsanordnung I, without chloroquine in the test medium", "value": "6000 ± 1500", "unit": "nM"}, {"measurement": "IC50", "setting": "[2]; Versuchsanordnung II, without chloroquine in the test medium", "value": "2000 ± 1000", "unit": "nM"}, {"measurement": "Konzentration für dieselbe Wachstumshemmung in the presence of chloroquine", "setting": "[2]; in the presence of a chloroquine concentration inactive by itself, compared with no chloroquine", "value": "halbiert sich noch weiter"}, {"measurement": "Konzentration für dieselbe Wachstumshemmung, resistant strain compared with sensitive strain", "setting": "[2]; without chloroquine, compared with normally sensitive strain under the same conditions", "value": "etwa dreimal niedrigeren Konzentration"}, {"measurement": "Wachstum des Parasiten", "setting": "P. vinckei; 0,2 g/kg", "value": "deutlich hemmt"}, {"measurement": "Wachstum des Parasiten", "setting": "P. vinckei; 1,0 g/kg", "value": "vollständig tötet"}, {"measurement": "Wachstum (in vitro)", "setting": "[3]", "value": "nicht nur in ihrem Wachstum gehemmt, sondern auch getötet"}]}, {"smiles": "COc1ncnc(NS(=O)(=O)c2ccc(N)cc2)c1OC", "note": "[Sulfadoxine]", "values": [{"measurement": "Wachstumshemmung (result in words)", "setting": "[1]; Hauptversuch II with this substance in place of chloroquine, combined with Desferrioxamin B", "value": "Analoge Resulte"}]}]}
